Test results: US20250340570A1, “COMPOSITIONS USEFUL FOR MODULATING SPLICING” (Skyhawk Therapeutics, Inc., priority 2022, published 2025)

Experiments:
total ATXN3 protein = experiment: ATXN3 total protein assay (Mesoscale Discovery); assay type: cell-based; details: Human neuroblastoma SK-N-MC cells, 48 hours incubation, MSD assay
In short: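 SK-N-MC neuroblastoma cells treated 48 hours with compound, 30 µM to 0.6 nM. Lysates assayed by MSD sandwich immunoassay with mouse capture and rabbit detection anti-ATXN3 antibodies; quantified against recombinant ATXN3 standards.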

[1] = system: ATXN3 transcripts containing exon 4; experiment: ATXN3 quantitative splicing assay (qPCR, E4E5 transcripts containing exon 4); assay type: cell-based; details: Human neuroblastoma SK-N-MC cells, 24 h treatment, qPCR primers/probe E4E5
In short: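 SK-N-MC neuroblastoma cells treated 24 h with compounds from 30 μM to 0.6 nM (0.3% DMSO), then lysed for cDNA synthesis. ATXN3 transcripts containing exon 4 quantified by TaqMan qPCR with E4E5 primers/probe; E8E9 set measured total ATXN3.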

Q: Which results are given for `C[C@H](N)Cc1sc2c(NCc3cccs3)snc2c1-c1ccccc1` [Compound 128, 7-[(S)-2-aminopropyl]-8-phenyl-4-thenylamino-3,6-dithia-2-azabicyclo[3.3.0]octa-1,4,7-triene]?
A: IC50 (total ATXN3 protein): 10 to 40 µM; IC50 [1]: 10 to 40 µM
